Like-named read-outs stand apart in the source and are kept apart here.
Columns and labels:
thymidine phosphorylase = test: Production of thymidine phosphorylase in tumor cells; type: cell-based; details: some tumor cells; preliminary experiments
Description: The data from each of the combination analyses was analyzed using [sequence] software (Biosoft, Cambridge, UK), which determined a combination index (“CI”) value for each combination in each of the three cell lines examined.

[1] = system: paclitaxel-sensitive and paclitaxel-resistant cell lines and xenographs; details: cited from earlier work
tumor = details: mice; Chou, et al. 2001; cited from earlier work
[2] = Pharmacokinetics after infusion; type: in vivo
Description: In general, the pharmacokinetics are favorable. […] This is somewhat higher on average than the values for paclitaxel which are 140±70 l.

[3] = comparison value for paclitaxel; cited from earlier work

## C/C1=C/C[C@@H](/C(C)=C/c2csc(C)n2)OC(=O)C[C@H](O)C(C)(C)C(=O)[C@H](C)[C@@H](O)[C@@H](C)CCC1 [epothilone D, 12,13-deoxyepothilone B]
Thymidine phosphorylase
  production of thymidine phosphorylase: upregulate
[1]
  antitumor efficacy: has antitumor efficacy
tumor
  antitumor effects: dramatic antitumor effects
[2]; from 9 to 150 mg/m^2
  dependence of AUC on dosage: linear
[2]; in vivo
  dose dependence of pharmacokinetics: not dose-dependent
  pharmacokinetic parameters, second infusion as compared to first infusion: do not change
[2]; infusion
  half-life, mean value: 9.6 ± 2.2 h
  volume of distribution (Vz): 172 ± 74 L

## CC(=O)O[C@H]1C(=O)[C@@]2(C)[C@H]([C@H](OC(=O)c3ccccc3)[C@]3(O)C[C@H](OC(=O)[C@H](O)[C@@H](NC(=O)c4ccccc4)c4ccccc4)C(C)=C1C3(C)C)[C@]1(OC(C)=O)CO[C@@H]1C[C@@H]2O [paclitaxel]
[3]
  volume of distribution (Vz): 140 ± 70 L

From patent US20040167097A1, “EPO D + 5-FU/gemcitabine” (priority 2002, published 2004)
